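Test compounds were applied to cells in 96-well plates for 48 hours at 5 doses. GI50: concentration for 50% inhibition of growth.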 Active and inactive are the calls of the source. No stated cut-off is given here; in the data, active = GI50 up to about 1.1 µM and inactive = higher.
Columns and labels:
Assay in all cases: NCI anticancer screen, dose series, 48 h
[1] = system: A549
[2] = system: NCI-H226
[3] = system: BT-549
[4] = system: KM12
[5] = system: M14
[6] = system: SF-295
[7] = system: TK-10
[8] = system: MOLT-4
[9] = system: MDA-MB-231
[10] = system: OVCAR-5
[11] = system: U-251
[12] = system: T47D
[13] = system: DU-145
[14] = system: SF-268
[15] = system: CAKI-1
[16] = system: PC-3
[17] = system: UACC-257
[18] = system: EKVX
[19] = system: LOX IMVI
[20] = system: SR
[21] = system: SK-MEL-2
[22] = system: ACHN
[23] = system: HL-60
[24] = system: MDA-MB-435
[25] = system: Malme-3M
[26] = system: SNB-19
[27] = system: SN12C
[28] = system: UO-31
[29] = system: NCI-H460
[30] = system: HCT-116
[31] = system: RPMI-8226
[32] = system: HCC 2998
[33] = system: HOP-92
[34] = system: NCI-H23
[35] = system: MDA-N
[36] = system: CCRF-CEM
[37] = system: 786-0
[38] = system: SK-OV-3
[39] = system: OVCAR-8
[40] = system: NCI/ADR-RES
[41] = system: UACC-62
[42] = system: RXF 393
[43] = system: COLO 205
[44] = system: OVCAR-3
[45] = system: NCI-H522
[46] = system: K562
[47] = system: A498
[48] = system: HOP-62
[49] = system: HCT-15
[50] = system: SF-539
[51] = system: SW-620
[52] = system: MCF7
[53] = system: IGROV-1
[54] = system: OVCAR-4
[55] = system: HT-29
[56] = system: SK-MEL-5
[57] = system: SK-MEL-28
[58] = system: Hs-578T
[59] = system: SNB-75

For CCN1CCN(c2nc3ccc([N+](=O)[O-])cc3nc2C(=O)c2ccccc2)CC1, the GI50 [1] was 17.6 µM (inactive), the GI50 [2] was 11.8 µM (inactive) and the GI50 [3] was 5.64 µM (inactive). The GI50 [4] was 16.8 µM (inactive), the GI50 [5] was 12.4 µM (inactive) and the GI50 [6] was 16.7 µM (inactive). The GI50 [7] was 19.9 µM (inactive), the GI50 [8] was 3.23 µM (inactive) and the GI50 [9] was 14.6 µM (inactive). The GI50 [10] was 20.1 µM (inactive), the GI50 [11] was 17.3 µM (inactive) and the GI50 [12] was 26.7 µM (inactive). The GI50 [13] was 18.8 µM (inactive), the GI50 [14] was 19.1 µM (inactive) and the GI50 [15] was 16.7 µM (inactive). For the same compound, the GI50 [16] was 17.3 µM (inactive), the GI50 [17] was 20.1 µM (inactive) and the GI50 [18] was 16.1 µM (inactive). The GI50 [19] was 4.98 µM (inactive), the GI50 [20] was 2.47 µM (inactive) and the GI50 [21] was 15.8 µM (inactive). The GI50 [22] was 15.8 µM (inactive), the GI50 [23] was 26.2 µM (inactive) and the GI50 [24] was 16.3 µM (inactive). For the same compound, the GI50 [25] was 13.1 µM (inactive), the GI50 [26] was 26 µM (inactive) and the GI50 [27] was 16.3 µM (inactive). The GI50 [28] was 12.6 µM (inactive), the GI50 [29] was 21.8 µM (inactive) and the GI50 [30] was 17.1 µM (inactive). The GI50 [31] was 12.8 µM (inactive), the GI50 [32] was 15.3 µM (inactive) and the GI50 [33] was 17.8 µM (inactive). For the same compound, the GI50 [34] was 17.2 µM (inactive), the GI50 [35] was 18.7 µM (inactive) and the GI50 [36] was 2.12 µM (inactive). The GI50 [37] was 18.7 µM (inactive), the GI50 [38] was 14.8 µM (inactive) and the GI50 [39] was 16.8 µM (inactive). For the same compound, the GI50 [40] was 14.8 µM (inactive), the GI50 [41] was 16.9 µM (inactive) and the GI50 [42] was 16.7 µM (inactive). The GI50 [43] was 16.2 µM (inactive), the GI50 [44] was 16.8 µM (inactive) and the GI50 [45] was 2.67 µM (inactive). For the same compound, the GI50 [46] was 6.31 µM (inactive), the GI50 [47] was 30.4 µM (inactive) and the GI50 [48] was 20.1 µM (inactive). The GI50 [49] was 12 µM, the GI50 [50] was 16.1 µM (inactive) and the GI50 [51] was 21 µM (inactive). The GI50 [52] was 18.3 µM (inactive) and the GI50 [53] was 5.78 µM (inactive).

In the case of O=C(Nc1ccc(F)cc1)c1cc2ccc(O)cc2o/c1=N\c1cccc(F)c1, the GI50 [3] is reported as 30.6 µM (inactive), the GI50 [4] is reported as 29.9 µM (inactive) and the GI50 [6] is reported as 43.9 µM (inactive). For the same compound, the GI50 [8] was 27.9 µM (inactive), the GI50 [10] was > 100 µM (inactive) and the GI50 [11] was 28.7 µM (inactive). The GI50 [54] was 26 µM (inactive), the GI50 [55] was > 100 µM (inactive) and the GI50 [12] was 31.5 µM (inactive). The GI50 [13] was 28.9 µM (inactive), the GI50 [14] was 43.1 µM (inactive) and the GI50 [15] was 32.7 µM (inactive). For the same compound, the GI50 [16] was 33 µM (inactive), the GI50 [17] was 33.5 µM (inactive) and the GI50 [18] was 22.9 µM (inactive). The GI50 [19] was 25.4 µM (inactive), the GI50 [20] was 33.3 µM (inactive) and the GI50 [21] was 42.2 µM (inactive). For the same compound, the GI50 [22] was 32.8 µM (inactive), the GI50 [23] was 27.3 µM (inactive) and the GI50 [24] was 31.8 µM (inactive). For the same compound, the GI50 [25] was 20.2 µM (inactive), the GI50 [27] was 38.9 µM (inactive) and the GI50 [29] was 31.7 µM (inactive). For the same compound, the GI50 [30] was 35.4 µM (inactive), the GI50 [31] was 14.8 µM (inactive) and the GI50 [32] was 55.6 µM (inactive). The GI50 [34] was 19.9 µM (inactive), the GI50 [35] was 38.8 µM (inactive) and the GI50 [36] was 15.2 µM (inactive). The GI50 [37] was 39.9 µM (inactive), the GI50 [56] was 16.1 µM (inactive) and the GI50 [38] was 51.6 µM (inactive). The GI50 [39] was 18.4 µM (inactive), the GI50 [40] was 28.2 µM (inactive) and the GI50 [41] was 42.8 µM (inactive). For the same compound, the GI50 [43] was > 100 µM (inactive), the GI50 [44] was 38.3 µM (inactive) and the GI50 [45] was 16.4 µM (inactive). The GI50 [46] was 22 µM (inactive), the GI50 [47] was 43 µM (inactive) and the GI50 [48] was 42.5 µM (inactive). For the same compound, the GI50 [49] was 27.5 µM, the GI50 [50] was 52.7 µM (inactive) and the GI50 [51] was 41.5 µM (inactive). For the same compound, the GI50 [57] was 45.7 µM (inactive), the GI50 [52] was 32.8 µM (inactive) and the GI50 [53] was 18.9 µM (inactive).

For Nc1ccc(C(=O)c2cn(CCN3CCOCC3)c3ccccc23)c2ccccc12, the GI50 [1] was 40.9 µM (inactive), the GI50 [3] was 19.1 µM (inactive) and the GI50 [4] was 31.1 µM (inactive). For the same compound, the GI50 [5] was 44.6 µM (inactive), the GI50 [6] was 33.3 µM (inactive) and the GI50 [8] was 19.4 µM (inactive). The GI50 [10] was 39.3 µM (inactive), the GI50 [11] was 55.6 µM (inactive) and the GI50 [54] was 33 µM (inactive). For the same compound, the GI50 [55] was 22.5 µM (inactive), the GI50 [12] was 24.4 µM (inactive) and the GI50 [13] was 63 µM (inactive). For the same compound, the GI50 [14] was 32.6 µM (inactive), the GI50 [15] was 62.8 µM (inactive) and the GI50 [16] was 36.1 µM (inactive). For the same compound, the GI50 [17] was 45.6 µM (inactive), the GI50 [18] was 21.2 µM (inactive) and the GI50 [19] was 23.4 µM (inactive). The GI50 [20] was 22.9 µM (inactive), the GI50 [21] was 36.6 µM (inactive) and the GI50 [22] was 48.9 µM (inactive). For the same compound, the GI50 [23] was 15.4 µM (inactive), the GI50 [24] was 27.7 µM (inactive) and the GI50 [25] was 34.1 µM (inactive). The GI50 [26] was 75 µM (inactive), the GI50 [28] was 44.4 µM (inactive) and the GI50 [29] was 34.3 µM (inactive). The GI50 [58] was 28.2 µM (inactive), the GI50 [30] was 31.7 µM (inactive) and the GI50 [31] was 26.5 µM (inactive). For the same compound, the GI50 [32] was 47.2 µM (inactive), the GI50 [34] was 23.8 µM (inactive) and the GI50 [35] was 32.5 µM (inactive). For the same compound, the GI50 [36] was 3.94 µM (inactive), the GI50 [37] was 54.6 µM (inactive) and the GI50 [56] was 20.7 µM (inactive). For the same compound, the GI50 [38] was > 100 µM (inactive), the GI50 [39] was 20.2 µM (inactive) and the GI50 [40] was 22.7 µM (inactive). For the same compound, the GI50 [41] was 34 µM (inactive), the GI50 [43] was 24.8 µM (inactive) and the GI50 [44] was 32.6 µM (inactive). For the same compound, the GI50 [45] was 21 µM (inactive), the GI50 [46] was 17.3 µM (inactive) and the GI50 [47] was 65.6 µM (inactive). The GI50 [48] was 83.4 µM (inactive), the GI50 [49] was 18.2 µM and the GI50 [50] was 70.8 µM (inactive). The GI50 [51] was 30.8 µM (inactive), the GI50 [57] was 38.4 µM (inactive) and the GI50 [52] was 34 µM (inactive). For the same compound, the GI50 [53] was 16.1 µM (inactive).

In the case of OCCCSc1ccccc1SCCCO, the GI50 [1] is reported as > 100 µM (inactive), the GI50 [59] is reported as 17.2 µM (inactive) and the GI50 [3] is reported as > 100 µM (inactive). For the same compound, the GI50 [4] was > 100 µM (inactive), the GI50 [5] was > 100 µM (inactive) and the GI50 [6] was > 100 µM (inactive). The GI50 [7] was > 100 µM (inactive), the GI50 [8] was > 100 µM (inactive) and the GI50 [9] was > 100 µM (inactive). For the same compound, the GI50 [10] was > 100 µM (inactive), the GI50 [11] was > 100 µM (inactive) and the GI50 [54] was > 100 µM (inactive). For the same compound, the GI50 [55] was > 100 µM (inactive), the GI50 [12] was > 100 µM (inactive) and the GI50 [13] was > 100 µM (inactive). For the same compound, the GI50 [14] was > 100 µM (inactive), the GI50 [16] was > 100 µM (inactive) and the GI50 [17] was > 100 µM (inactive). The GI50 [18] was > 100 µM (inactive), the GI50 [19] was > 100 µM (inactive) and the GI50 [20] was > 100 µM (inactive). The GI50 [23] was > 100 µM (inactive), the GI50 [24] was > 100 µM (inactive) and the GI50 [26] was > 100 µM (inactive). The GI50 [27] was > 100 µM (inactive), the GI50 [28] was > 100 µM (inactive) and the GI50 [29] was > 100 µM (inactive). For the same compound, the GI50 [30] was > 100 µM (inactive), the GI50 [32] was > 100 µM (inactive) and the GI50 [33] was < 0.01 µM (active). The GI50 [34] was > 100 µM (inactive), the GI50 [35] was > 100 µM (inactive) and the GI50 [36] was > 100 µM (inactive). The GI50 [37] was > 100 µM (inactive), the GI50 [56] was > 100 µM (inactive) and the GI50 [38] was > 100 µM (inactive). For the same compound, the GI50 [39] was > 100 µM (inactive), the GI50 [40] was > 100 µM (inactive) and the GI50 [41] was > 100 µM (inactive). For the same compound, the GI50 [43] was > 100 µM (inactive), the GI50 [44] was > 100 µM (inactive) and the GI50 [45] was > 100 µM (inactive). The GI50 [46] was > 100 µM (inactive), the GI50 [48] was > 100 µM (inactive) and the GI50 [49] was greater than 100 µM. The GI50 [50] was > 100 µM (inactive), the GI50 [51] was > 100 µM (inactive) and the GI50 [57] was > 100 µM (inactive). The GI50 [52] was > 100 µM (inactive) and the GI50 [53] was > 100 µM (inactive).

Source: ChEMBL document CHEMBL1201862, “PubChem BioAssay data set” (2004)
